Measurements from patent US8952024B2, “Herbicidal pyrimidone derivatives” (E I du Pont de Nemours and Company, priority 2009, dated 2015).

Tests used:
Type in all cases: in vivo
[1] = test system: wheat (Triticum aestivum); assay: Test A pre-/postemergence plant response; details: for Wheat plant response rating: visual injury, 0 to 100 scale (0 no effect, 100 complete control), approx. ten days
Outline: (§1)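 Injury scores (0, no effect; 100, complete control) come from visual comparison with untreated controls roughly ten days post-treatment. Test chemicals in a surfactant-containing non-phytotoxic solvent were applied as a directed soil spray preemergence and to one- to two-leaf seedlings postemergence.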

[2] = test system: pigweed (Amaranthus retroflexus); assay: Test A pre-/postemergence plant response; details: for Pigweed plant response rating: visual injury, 0 to 100 scale (0 no effect, 100 complete control), approx. ten days
Outline: as §1

[3] = test system: morningglory (Ipomoea spp.); assay: Test A pre-/postemergence plant response; details: for Morningglory plant response rating: visual injury, 0 to 100 scale (0 no effect, 100 complete control), approx. ten days
Outline: as §1

corn (Zea mays) = assay: Test A pre-/postemergence plant response; details: for Corn plant response rating: visual injury, 0 to 100 scale (0 no effect, 100 complete control), approx. ten days
Outline: as §1

[4] = test system: giant foxtail (Setaria faberii); assay: Test A pre-/postemergence plant response; details: for Foxtail, Giant plant response rating: visual injury, 0 to 100 scale (0 no effect, 100 complete control), approx. ten days
Outline: as §1

[5] = test system: large crabgrass (Digitaria sanguinalis); assay: Test A pre-/postemergence plant response; details: for Crabgrass, Large plant response rating: visual injury, 0 to 100 scale (0 no effect, 100 complete control), approx. ten days
Outline: as §1

[6] = test system: barnyardgrass (Echinochloa crus-galli); assay: Test A pre-/postemergence plant response; details: for Barnyardgrass plant response rating: visual injury, 0 to 100 scale (0 no effect, 100 complete control), approx. ten days
Outline: as §1

[7] = test system: velvetleaf (Abutilon theophrasti); assay: Test A pre-/postemergence plant response; details: for Velvetleaf plant response rating: visual injury, 0 to 100 scale (0 no effect, 100 complete control), approx. ten days
Outline: as §1

rice (Oryza sativa) = assay: Test B flooded paddy test; details: for Plant response rating, Rice: Flood (flooded paddy test), 13 to 15 days; for Rice plant response rating: Flood, 31 g ai/ha, scale 0 to 100 (0 no effect, 100 complete control); for Plant response rating, Flood, Rice: 250 g ai/ha, flooded paddy test, visual rating on 0 to 100 scale (0 no effect, 100 complete control) after 13 to 15 days
Outline: (§2)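 Rice, umbrella sedge, ducksalad and barnyardgrass were grown to the 2-leaf stage, flooded to 3 cm, and compound was applied directly to the paddy water, with that depth kept throughout. After 13 to 15 days in the greenhouse, plants were visually rated against controls on a 0 (no effect) to 100 (complete control) scale.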

[8] = test system: ducksalad (Heteranthera limosa); assay: Test B flooded paddy test; details: for Plant response rating, Ducksalad: Flood (flooded paddy test), 13 to 15 days; for Ducksalad plant response rating: Flood, 31 g ai/ha, scale 0 to 100 (0 no effect, 100 complete control); for Plant response rating, Flood, Ducksalad: 250 g ai/ha, flooded paddy test, visual rating on 0 to 100 scale (0 no effect, 100 complete control) after 13 to 15 days
Outline: as §2

[9] = test system: umbrella sedge (Cyperus difformis); assay: Test B flooded paddy test; details: for Plant response rating, Sedge, Umbrella: Flood (flooded paddy test), 13 to 15 days; for Sedge, Umbrella plant response rating: Flood, 31 g ai/ha, scale 0 to 100 (0 no effect, 100 complete control); for Plant response rating, Flood, Sedge, Umbrella: 250 g ai/ha, flooded paddy test, visual rating on 0 to 100 scale (0 no effect, 100 complete control) after 13 to 15 days
Outline: as §2

[10] = test system: barnyardgrass (Echinochloa crus-galli); assay: Test B flooded paddy test; details: for Plant response rating, Barnyardgrass: Flood (flooded paddy test), 13 to 15 days; for Barnyardgrass plant response rating: Flood, 31 g ai/ha, scale 0 to 100 (0 no effect, 100 complete control); for Plant response rating, Flood, Barnyardgrass: 250 g ai/ha, flooded paddy test, visual rating on 0 to 100 scale (0 no effect, 100 complete control) after 13 to 15 days
Outline: as §2

[11] = Postemergence, 125 g ai/ha, 0 to 100 scale where 0 is no effect and 100 is complete control
[12] = Preemergence, 125 g ai/ha, 0 to 100 scale, 0 = no effect, 100 = complete control
[13] = Preemergence, 500 g ai/ha, 0 to 100 scale, 0 = no effect, 100 = complete control
[14] = 125 g ai/ha, scale 0 to 100, 0 is no effect, 100 is complete control
[15] = 62 g ai/ha, scale of 0 to 100 where 0 is no effect and 100 is complete control

O=C1CCCC(O)=C1C(=O)c1cnc(-c2cc(F)cc(F)c2)n(CC2CCCO2)c1=O (centres unmarked) [Compound 180]
65: Plant response rating, Sedge, Umbrella [9, 14]
100: Plant response rating, Pigweed [2, 11] | Pigweed plant response rating ([2]; Postemergence, 500 g ai/ha) | Plant response rating, Pigweed [2, 13] | Morningglory plant response rating ([3]; Postemergence, 500 g ai/ha) | Foxtail, Giant plant response rating ([4]; Postemergence, 500 g ai/ha) | Crabgrass, Large plant response rating ([5]; Postemergence, 500 g ai/ha) | Plant response rating, Crabgrass, Large [5, 13] | Barnyardgrass plant response rating ([6]; Postemergence, 500 g ai/ha) | Plant response rating, Velvetleaf [7, 11] | Velvetleaf plant response rating ([7]; Postemergence, 500 g ai/ha) | Plant response rating, Velvetleaf [7, 13]
80: Plant response rating, Crabgrass, Large [5, 12] | Plant response rating, Barnyardgrass [6, 13] | Plant response rating, Velvetleaf [7, 12]
0: Plant response rating, Wheat [1, 11] | Plant response rating, Wheat [1, 12] | Plant response rating, Morningglory [3, 12] | Plant response rating, Corn (corn (Zea mays); [12]) | Plant response rating, Corn (corn (Zea mays); [13]) | Barnyardgrass plant response rating [10]
75: Plant response rating, Ducksalad [8, 14]
60: Ducksalad plant response rating [8]
10: Plant response rating, Corn (corn (Zea mays); [11])
15: Rice plant response rating (rice (Oryza sativa)) | Plant response rating, Barnyardgrass [10, 14]
90: Plant response rating, Pigweed [2, 12] | Plant response rating, Crabgrass, Large [5, 11] | Plant response rating, Barnyardgrass [6, 11]
70: Plant response rating, Foxtail, Giant [4, 11] | Plant response rating, Foxtail, Giant [4, 13]
30: Wheat plant response rating ([1]; Postemergence, 500 g ai/ha) | Plant response rating, Foxtail, Giant [4, 12] | Plant response rating, Barnyardgrass [6, 12] | Plant response rating, Rice (rice (Oryza sativa); [14])
40: Plant response rating, Morningglory [3, 11] | Corn plant response rating (corn (Zea mays); Postemergence, 500 g ai/ha)
20: Plant response rating, Wheat [1, 13] | Sedge, Umbrella plant response rating [9]

CCOCCn1c(-c2cc(F)cc(F)c2)ncc(C(=O)C2=C(O)CCCC2=O)c1=O [Compound 182]
100: Pigweed plant response rating ([2]; Postemergence, 500 g ai/ha) | Plant response rating, Pigweed [2, 13] | Plant response rating, Morningglory [3, 11] | Morningglory plant response rating ([3]; Postemergence, 500 g ai/ha) | Plant response rating, Crabgrass, Large [5, 12] | Plant response rating, Crabgrass, Large [5, 13] | Plant response rating, Velvetleaf [7, 11] | Velvetleaf plant response rating ([7]; Postemergence, 500 g ai/ha) | Plant response rating, Velvetleaf [7, 13]
0: Plant response rating, Wheat [1, 11] | Plant response rating, Wheat [1, 12] | Plant response rating, Corn (corn (Zea mays); [11]) | Plant response rating, Corn (corn (Zea mays); [12]) | Plant response rating, Rice (rice (Oryza sativa); [14]) | Rice plant response rating (rice (Oryza sativa)) | Plant response rating, Barnyardgrass [10, 14] | Barnyardgrass plant response rating [10]
70: Plant response rating, Morningglory [3, 12] | Plant response rating, Barnyardgrass [6, 11] | Plant response rating, Barnyardgrass [6, 12] | Plant response rating, Velvetleaf [7, 12]
90: Plant response rating, Pigweed [2, 12] | Crabgrass, Large plant response rating ([5]; Postemergence, 500 g ai/ha) | Barnyardgrass plant response rating ([6]; Postemergence, 500 g ai/ha) | Plant response rating, Barnyardgrass [6, 13]
60: Ducksalad plant response rating [8]
20: Corn plant response rating (corn (Zea mays); Postemergence, 500 g ai/ha) | Plant response rating, Corn (corn (Zea mays); [13])
80: Plant response rating, Pigweed [2, 11] | Plant response rating, Morningglory [3, 13] | Foxtail, Giant plant response rating ([4]; Postemergence, 500 g ai/ha) | Plant response rating, Foxtail, Giant [4, 13] | Plant response rating, Crabgrass, Large [5, 11]
75: Plant response rating, Sedge, Umbrella [9, 14]
50: Wheat plant response rating ([1]; Postemergence, 500 g ai/ha) | Plant response rating, Wheat [1, 13] | Plant response rating, Foxtail, Giant [4, 11] | Plant response rating, Foxtail, Giant [4, 12] | Sedge, Umbrella plant response rating [9]
85: Plant response rating, Ducksalad [8, 14]

Cc1ccc(F)cc1-n1c(-c2cc(F)cc(F)c2)ncc(C(=O)C2=C(O)CCCC2=O)c1=O [Compound 183]
60: Plant response rating, Foxtail, Giant [4, 12] | Plant response rating, Barnyardgrass [6, 11]
100: Plant response rating, Pigweed [2, 11] | Pigweed plant response rating ([2]; Postemergence, 500 g ai/ha) | Plant response rating, Pigweed [2, 13] | Foxtail, Giant plant response rating ([4]; Postemergence, 500 g ai/ha) | Crabgrass, Large plant response rating ([5]; Postemergence, 500 g ai/ha) | Plant response rating, Crabgrass, Large [5, 13] | Plant response rating, Barnyardgrass [6, 13] | Plant response rating, Velvetleaf [7, 11] | Velvetleaf plant response rating ([7]; Postemergence, 500 g ai/ha) | Plant response rating, Velvetleaf [7, 12] | Plant response rating, Velvetleaf [7, 13]
95: Plant response rating, Flood, Ducksalad [8]
10: Plant response rating, Corn (corn (Zea mays); [11])
90: Plant response rating, Pigweed [2, 12] | Plant response rating, Foxtail, Giant [4, 13] | Plant response rating, Crabgrass, Large [5, 12] | Barnyardgrass plant response rating ([6]; Postemergence, 500 g ai/ha) | Plant response rating, Flood, Sedge, Umbrella [9]
35: Plant response rating, Flood, Barnyardgrass [10]
20: Plant response rating, Morningglory [3, 12] | Plant response rating, Barnyardgrass [6, 12]
50: Plant response rating, Wheat [1, 11] | Plant response rating, Wheat [1, 13] | Plant response rating, Morningglory [3, 13] | Plant response rating, Sedge, Umbrella [9, 15]
30: Ducksalad plant response rating [8]
70: Morningglory plant response rating ([3]; Postemergence, 500 g ai/ha)
80: Wheat plant response rating ([1]; Postemergence, 500 g ai/ha) | Corn plant response rating (corn (Zea mays); Postemergence, 500 g ai/ha) | Plant response rating, Foxtail, Giant [4, 11] | Plant response rating, Crabgrass, Large [5, 11] | Plant response rating, Ducksalad [8, 14]
0: Plant response rating, Wheat [1, 12] | Plant response rating, Corn (corn (Zea mays); [12]) | Plant response rating, Corn (corn (Zea mays); [13]) | Plant response rating, Flood, Rice (rice (Oryza sativa)) | Plant response rating, Rice (rice (Oryza sativa); [15]) | Plant response rating, Rice (rice (Oryza sativa); [14]) | Rice plant response rating (rice (Oryza sativa)) | Sedge, Umbrella plant response rating [9] | Plant response rating, Barnyardgrass [10, 15] | Plant response rating, Barnyardgrass [10, 14] | Barnyardgrass plant response rating [10]
65: Plant response rating, Ducksalad [8, 15] | Plant response rating, Sedge, Umbrella [9, 14]
40: Plant response rating, Morningglory [3, 11]

O=C1CCCC(O)=C1C(=O)c1cnc(-c2ccco2)n(C2CCCCC2)c1=O [Compound 188]
85: Plant response rating, Flood, Ducksalad [8] | Plant response rating, Flood, Sedge, Umbrella [9]
30: Plant response rating, Crabgrass, Large [5, 12] | Plant response rating, Barnyardgrass [6, 13]
70: Plant response rating, Morningglory [3, 12] | Plant response rating, Crabgrass, Large [5, 13] | Plant response rating, Barnyardgrass [6, 11] | Plant response rating, Velvetleaf [7, 12] | Plant response rating, Ducksalad [8, 15]
0: Plant response rating, Wheat [1, 11] | Wheat plant response rating ([1]; Postemergence, 500 g ai/ha) | Plant response rating, Wheat [1, 12] | Plant response rating, Wheat [1, 13] | Plant response rating, Corn (corn (Zea mays); [11]) | Plant response rating, Corn (corn (Zea mays); [12]) | Plant response rating, Corn (corn (Zea mays); [13]) | Plant response rating, Barnyardgrass [6, 12] | Plant response rating, Rice (rice (Oryza sativa); [15]) | Plant response rating, Flood, Barnyardgrass [10] | Plant response rating, Barnyardgrass [10, 15]
90: Plant response rating, Pigweed [2, 11] | Plant response rating, Morningglory [3, 11] | Crabgrass, Large plant response rating ([5]; Postemergence, 500 g ai/ha) | Barnyardgrass plant response rating ([6]; Postemergence, 500 g ai/ha)
100: Pigweed plant response rating ([2]; Postemergence, 500 g ai/ha) | Morningglory plant response rating ([3]; Postemergence, 500 g ai/ha) | Plant response rating, Velvetleaf [7, 11] | Velvetleaf plant response rating ([7]; Postemergence, 500 g ai/ha)
60: Plant response rating, Pigweed [2, 12]
15: Plant response rating, Flood, Rice (rice (Oryza sativa))
80: Plant response rating, Pigweed [2, 13] | Plant response rating, Morningglory [3, 13] | Foxtail, Giant plant response rating ([4]; Postemergence, 500 g ai/ha) | Plant response rating, Crabgrass, Large [5, 11] | Plant response rating, Velvetleaf [7, 13] | Plant response rating, Sedge, Umbrella [9, 15]
10: Corn plant response rating (corn (Zea mays); Postemergence, 500 g ai/ha) | Plant response rating, Foxtail, Giant [4, 12]
40: Plant response rating, Foxtail, Giant [4, 11] | Plant response rating, Foxtail, Giant [4, 13]
